# Measurements as given in the supplement of paper PMC10307832.
# Legend:
# Experiment in all cases: relative viability (nuclei count vs DMSO), 5 days (fraction); higher = more cells survive
# Alpelisib + Pemetrexed = compound: Cc1nc(NC(=O)N2CCC[C@H]2C(N)=O)sc1-c1ccnc(C(C)(C)C(F)(F)F)c1 [Alpelisib] + Nc1nc2[nH]cc(CCc3ccc(C(=O)N[C@@H](CCC(=O)O)C(=O)O)cc3)c2c(=O)[nH]1 [Pemetrexed] (partner 0.2 µM)
# Procedure, shortened: (§1)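 After 5 days of treatment, lung cancer cells in 1536-well plates were fixed and stained in a single step (final 0.05% Triton X-100, 1% formaldehyde, 1 ug/ml Hoechst) and their nuclei counted on 4× images. Treatment had been applied by pin tool the day after seeding as one drug alone or as a fixed anchor-drug dose with five library-drug doses (not always all listed) in √10 steps. Relative viability is the nuclei count of treated wells divided by that of vehicle wells, and values are medians of duplicate plates.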
# OSI-027 + Pictilisib = compound: COc1cccc2cc(-c3nc([C@H]4CC[C@H](C(=O)O)CC4)n4ncnc(N)c34)[nH]c12 [OSI-027] + CS(=O)(=O)N1CCN(Cc2cc3nc(-c4cccc5[nH]ncc45)nc(N4CCOCC4)c3s2)CC1 [Pictilisib] (partner 1 µM)
# Procedure, shortened: as §1
# Vemurafenib + Alpelisib = compound: CCCS(=O)(=O)Nc1ccc(F)c(C(=O)c2c[nH]c3ncc(-c4ccc(Cl)cc4)cc23)c1F [Vemurafenib] + Cc1nc(NC(=O)N2CCC[C@H]2C(N)=O)sc1-c1ccnc(C(C)(C)C(F)(F)F)c1 [Alpelisib] (partner 2 µM)
# Procedure, shortened: as §1
# Alpelisib + Trametinib = compound: Cc1nc(NC(=O)N2CCC[C@H]2C(N)=O)sc1-c1ccnc(C(C)(C)C(F)(F)F)c1 [Alpelisib] + CC(=O)Nc1cccc(-n2c(=O)n(C3CC3)c(=O)c3c(Nc4ccc(I)cc4F)n(C)c(=O)c(C)c32)c1 [Trametinib] (partner 0.02 µM)
# Procedure, shortened: as §1
Cell Line,relative viability (Alpelisib + Pemetrexed; first compound 0.04 µM),relative viability (Alpelisib + Pemetrexed; first compound 0.1265 µM),relative viability (Alpelisib + Pemetrexed; first compound 0.4 µM),relative viability (Alpelisib + Pemetrexed; first compound 1.265 µM),relative viability (Alpelisib + Pemetrexed; first compound 4 µM),relative viability (OSI-027 + Pictilisib; first compound 0.01 µM),relative viability (OSI-027 + Pictilisib; first compound 0.03162 µM),relative viability (OSI-027 + Pictilisib; first compound 0.1 µM),relative viability (OSI-027 + Pictilisib; first compound 0.3162 µM),relative viability (OSI-027 + Pictilisib; first compound 1 µM),relative viability (Vemurafenib + Alpelisib; first compound 0.03162 µM),relative viability (Vemurafenib + Alpelisib; first compound 0.1 µM),relative viability (Vemurafenib + Alpelisib; first compound 1 µM),relative viability (Alpelisib + Trametinib; first compound 0.04 µM),relative viability (Alpelisib + Trametinib; first compound 0.1265 µM),relative viability (Alpelisib + Trametinib; first compound 0.4 µM),relative viability (Alpelisib + Trametinib; first compound 1.265 µM),relative viability (Alpelisib + Trametinib; first compound 4 µM),relative viability (Vemurafenib + Alpelisib; first compound 0.3162 µM)
HCC-366,0.175,0.232,0.296,0.342,0.254,0.179,0.154,0.165,0.124,0.0569,0.417,0.391,0.379,0.337,0.289,0.233,0.138,0.13,
HCC-827,0.277,0.285,0.278,0.225,0.143,0.9,0.76,0.891,0.878,0.483,0.959,,0.9,0.547,0.504,0.492,0.401,0.33,1.01
HOP-62,0.342,0.28,0.364,0.26,0.297,0.565,0.76,0.467,0.674,0.254,1.09,0.954,0.808,0.353,0.376,0.434,0.384,0.384,0.928
IA-LM,,,,,,0.423,0.176,0.181,0.119,0.107,0.824,0.81,0.548,,,,,,0.777
LC-2-ad,0.276,0.276,0.275,0.267,0.271,0.427,0.373,0.501,0.474,0.221,0.831,0.557,0.877,0.902,0.93,0.968,0.764,0.738,0.867
LCLC-97TM1,0.177,0.17,0.183,0.174,0.127,0.211,0.208,0.199,0.116,0.126,0.26,0.233,0.262,0.194,0.167,0.165,0.133,0.159,0.275
LCLC-103H,0.476,0.488,0.506,0.47,0.333,0.588,0.641,0.582,0.568,0.561,0.901,0.883,1.04,0.669,0.693,0.646,0.567,0.475,1.02
LK-2,0.247,0.252,0.213,0.209,0.199,0.627,0.474,0.305,0.251,0.23,1.07,1.07,0.706,0.633,0.829,0.738,0.384,0.365,1.22
LOU-NH91,0.398,0.385,0.486,0.407,0.404,0.544,0.555,0.489,0.472,0.447,0.713,0.487,0.734,0.773,0.686,0.696,0.649,0.591,
LU99A,0.187,0.188,0.193,0.154,0.159,0.315,0.294,0.259,0.18,0.189,0.518,0.486,0.423,0.573,0.558,0.599,0.425,0.386,0.52
LXF-289,0.899,0.866,0.999,0.904,0.949,0.778,0.714,0.752,0.511,0.46,1.02,1.02,1.03,0.632,0.632,0.71,0.609,0.694,1.05
NCI-H23,0.78,0.622,0.726,0.602,0.416,0.491,0.403,0.407,0.312,0.245,0.626,0.642,0.664,0.287,0.354,0.252,0.286,0.233,0.912
NCI-H522,1.07,1.03,1.1,0.946,0.72,,,,,,,,,0.673,0.756,0.683,0.681,0.542,
NCI-H727,,,,,,0.3,0.247,0.351,0.246,0.319,0.519,0.49,0.574,0.349,0.387,0.383,0.301,0.308,0.849
NCI-H1299,,,,,,0.787,0.627,0.548,0.338,0.242,1.05,1.05,0.985,,,,,,0.928
NCI-H1563,0.857,0.579,0.662,0.622,0.567,0.619,0.625,0.604,0.631,0.673,0.874,0.935,0.949,,,,,,0.904
NCI-H1648,0.661,0.743,0.894,0.559,0.482,,,,,,,,,0.489,0.496,0.472,0.296,0.245,
NCI-H1650,0.434,0.354,0.337,0.335,0.353,0.551,0.553,0.474,0.432,0.347,,,,0.688,0.487,0.638,0.505,0.544,
NCI-H1703,,,,,,0.318,0.242,0.244,0.231,0.201,0.353,0.318,0.301,,,,,,0.292
NCI-H2342,0.843,0.77,0.694,0.686,0.447,,,,,,,,,0.754,0.854,0.671,0.604,0.67,
SW 900,0.513,,0.476,0.497,0.405,,,,,,,,,0.733,,1.11,0.761,0.745,
